Assay results: patent publication US8809376B2, “Indanyloxydihydrobenzofuranylacetic acids” (Boehringer Ingelheim International GmbH, priority 2012, dated 2014)

Biological target: human GPR40 receptor (Homo sapiens, UniProt O14842)
Experiment: Assay I: IP1 accumulation (IPOne assay system) in 1321N1 cells stably expressing human GPR40 receptor
Type: cell-based
Conditions: stimulated 1 hour at 37° C., 10% CO2, LiCl 50 mM
Protocol: IP1 accumulation measurements using the IPOne assay system—1321N1 cells stably expressing human GPR40 receptor (Euroscreen, Belgium) are seeded 24 h before the assay in black clear-bottom collagen-coated 384-well plates in culture medium containing 10% FCS, 1% Na-Pyruvate and 400 μg/mL G418. IP1 is assayed according to the Manufacturer's description (Cisbio Bioassays, France). In brief, the assay is started by substitution of the culture medium by stimulation buffer (Hepes 10 mM, CaCl2 1 mM, MgCl2 0.5 mM, KCl 4.2 mM, NaCl 146 mM and glucose 5.5 mM, pH 7.4) without LiCl. Cells are stimulated for 1 hour at 37° C., 10% CO2 by addition of the compounds that are diluted in stimulation buffer containing LiCl yielding a final LiCl concentration of 50 mM. Assays are stopped by adding HTRF-conjugates (IP1-d2 and Anti-IP1 cryptate Tb) and lysis buffer, provided by the manufacturer. After an incubation time of 1 hour at room temperature plates are measured using an EnVision™, Perkin Elmer. The obtained fluorescence ratios at 665/615 nM are then used to calculate the pEC50 values using GraphPad Prism 5 (Graphpad Software Inc, USA) by interpolation using an IP1 reference curve and subsequent sigmoidal curve fitting allowing for a variable hill slope.

human GPR40 receptor, sequence (O14842 whole entry): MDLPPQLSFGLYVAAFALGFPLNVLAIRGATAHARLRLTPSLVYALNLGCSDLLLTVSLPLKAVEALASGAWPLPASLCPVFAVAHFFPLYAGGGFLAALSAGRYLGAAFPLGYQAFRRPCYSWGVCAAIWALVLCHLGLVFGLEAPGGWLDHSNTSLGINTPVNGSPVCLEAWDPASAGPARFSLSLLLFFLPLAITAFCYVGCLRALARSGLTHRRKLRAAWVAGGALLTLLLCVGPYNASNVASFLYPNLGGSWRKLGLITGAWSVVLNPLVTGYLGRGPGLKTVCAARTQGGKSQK

| Structure (SMILES) | EC50 |
| --- | --- |
| CSc1ccc(Cc2c(C#N)ccc3c2CC[C@H]3Oc2ccc3c(c2)OC[C@H]3CC(=O)O)cc1 [Example 7, {(S)-6-[(R)-5-Cyano-4-(4-methylsulfanyl-benzyl)-indan-1-yloxy]-2,3-dihydro-benzofuran-3-yl}-acetic acid] | 18 nM |
| COc1ccc(Cc2ccc(F)c3c2CC[C@H]3Oc2ccc3c(c2)OC[C@H]3CC(=O)O)cc1 [Example 13, {(S)-6-[(R)-7-Fluoro-4-(4-methoxybenzyl)-indan-1-yloxy]-2,3-dihydrobenzofuran-3-yl}acetic acid] | 5 nM |
| C[S+]([O-])c1ccc(Cc2c(C#N)ccc3c2CC[C@H]3Oc2ccc3c(c2)OC[C@H]3CC(=O)O)cc1 (stereo partly drawn) [Example 12, {(S)-6-[(R)-5-Cyano-4-(4-methylsulfinyl-benzyl)-indan-1-yloxy]-2,3-dihydro-benzofuran-3-yl}-acetic acid] | 479 nM |
| N#Cc1ccc2c(c1Cc1ccc(Cl)nc1)CC[C@H]2Oc1ccc2c(c1)OC[C@H]2CC(=O)O [Example 2, {(S)-6-[(R)-4-(6-Chloro-pyridin-3-ylmethyl)-5-cyano-indan-1-yloxy]-2,3-dihydro-benzofuran-3-yl}-acetic acid] | 36 nM |
| O=C(O)C[C@@H]1COc2cc(O[C@@H]3CCc4c3ccc(C(F)(F)F)c4Cc3ccccc3)ccc21 [Example 10, {(S)-6-[(R)-4-Benzyl-5-trifluoromethyl-indan-1-yloxy]-2,3-dihydro-benzofuran-3-yl}-acetic acid] | 3 nM |
| O=C(O)C[C@@H]1COc2cc(O[C@@H]3CCc4c(Cc5ccc(Cl)nc5)ccc(F)c43)ccc21 [Example 15] | 35 nM |
| CS(=O)(=O)c1ccc(Cc2c(C#N)ccc3c2CC[C@H]3Oc2ccc3c(c2)OC[C@H]3CC(=O)O)cc1 [Example 8, {(S)-6-[(R)-5-Cyano-4-(4-methylsulfonyl-benzyl)-indan-1-yloxy]-2,3-dihydro-benzofuran-3-yl}-acetic acid] | 325 nM |
| COc1cccc(Cc2c(C#N)ccc3c2CC[C@H]3Oc2ccc3c(c2)OC[C@H]3CC(=O)O)c1 [Example 3, {(S)-6-[(R)-5-Cyano-4-(3-methoxy-benzyl)-indan-1-yloxy]-2,3-dihydro-benzofuran-3-yl}-acetic acid] | 24 nM |
| N#Cc1ccc2c(c1Cc1ccc(O)cc1)CC[C@H]2Oc1ccc2c(c1)OC[C@H]2CC(=O)O [Example 11, {(S)-6-[(R)-5-Cyano-4-(4-hydroxy-benzyl)-indan-1-yloxy]-2,3-dihydro-benzofuran-3-yl}-acetic acid] | 12 nM |
| Cc1cccc(C)c1Cc1c(C#N)ccc2c1CC[C@H]2Oc1ccc2c(c1)OC[C@H]2CC(=O)O [Example 5, {(S)-6-[(R)-5-Cyano-4-(2,6-dimethyl-benzyl)-indan-1-yloxy]-2,3-dihydro-benzofuran-3-yl}-acetic acid] | 6 nM |
